ChEMBL document CHEMBL1201862, “PubChem BioAssay data set” (2004)
Structures can show the parent of a compound that is named as a salt.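 How tested: cells in 96-well plates exposed to compound for 48 hours at five concentrations. GI50 = concentration required for 50% inhibition of growth.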 The source made the active and inactive calls. Rule as the data show it: active = GI50 up to about 1.1 µM and inactive = higher. Where a SMILES comes first, the peptide text is derived from it. The star is where a group is joined. Boc = CC(C)(C)OC(=O)*; Bn = c1ccc(C*)cc1

Key:
Assay in all cases: growth of human tumour cells (NCI), 48 h
DMS-114 = system: DMS-114
DMS-273 = system: DMS-273
DLD-1 = system: DLD-1
LXFL 529 = system: LXFL 529
XF498 = system: XF498
M19-MEL = system: M19-MEL
HOP-18 = system: HOP-18
T47D = system: T47D

Compound | GI50 (DMS-114) | GI50 (DMS-273) | GI50 (DLD-1) | GI50 (LXFL 529) | GI50 (XF498) | GI50 (M19-MEL) | GI50 (HOP-18) | GI50 (T47D)
Cc1cc2c3ccccc3n3c2c2c1OC1(C)CCC(C2C1)C3(C)C (stereo unspecified) | > 25 µM (inactive) | > 25 µM (inactive) | > 25 µM (inactive) | > 25 µM (inactive) | > 25 µM (inactive) | > 25 µM (inactive) | – | –
Cc1ccc(S(=O)(=O)Nc2ccccc2C(C)(C)C)cc1 | 17.9 µM (inactive) | 17.3 µM (inactive) | 30.8 µM (inactive) | 24.9 µM (inactive) | 22 µM (inactive) | 25.6 µM (inactive) | – | –
C(=C1/CCCCC([n+]2ccccc2)=N1)/c1ccccc1 | > 100 µM (inactive) | > 100 µM (inactive) | > 100 µM (inactive) | > 100 µM (inactive) | – | > 100 µM (inactive) | > 100 µM (inactive) | –
O=C1OC(=O)C2C1C1(c3ccccc3)OC2(c2ccccc2)c2c(Br)c(Br)c(Br)c(Br)c21 (stereo unspecified) | > 100 µM (inactive) | > 100 µM (inactive) | > 100 µM (inactive) | > 100 µM (inactive) | > 100 µM (inactive) | > 100 µM (inactive) | > 100 µM (inactive) | –
CC(C)(C=O)CC(C#N)/C(=N\NC(N)=O)C(=O)Nc1ccccc1C(N)=O (stereo unspecified) | – | – | – | > 100 µM (inactive) | > 100 µM (inactive) | > 100 µM (inactive) | – | –
O=[N+]([O-])c1ccc(C[P+](c2ccccc2)(c2ccccc2)c2ccccc2)cc1 | 23.2 µM (inactive) | 37.8 µM (inactive) | 50.4 µM (inactive) | 12.5 µM (inactive) | < 0.01 µM (active) | 24.2 µM (inactive) | 79.8 µM (inactive) | –
Nc1cc(=O)n(-c2ccccc2)c(=S)n1-c1ccccc1 | > 100 µM (inactive) | > 100 µM (inactive) | > 100 µM (inactive) | > 100 µM (inactive) | > 100 µM (inactive) | > 100 µM (inactive) | – | –
CCOC(=O)C1CC/C(=C(/C#N)C(=O)OC)N1 (stereo unspecified) | > 100 µM (inactive) | > 100 µM (inactive) | > 100 µM (inactive) | > 100 µM (inactive) | > 100 µM (inactive) | > 100 µM (inactive) | – | –
COc1ccc2nccc(C3=CCC4CCN(C(=O)c5ccccc5)C3C4)c2c1 (stereo unspecified) | > 100 µM (inactive) | > 100 µM (inactive) | > 100 µM (inactive) | > 100 µM (inactive) | 92 µM (inactive) | > 100 µM (inactive) | – | –
O=C(NCCCCCCNC(=O)n1cc(F)c(=O)[nH]c1=O)NCCCOCCOCCOCCOCCOCCOCCOCCOCCOCCOCCOCCOCCOCCOCCOCCOCCOCCOCCOCCOCCOCCCNC(=O)C(O)C(O)C(OC1OC(CO)C(O)C(O)C1O)C(O)CO (stereo unspecified) | > 100 µM (inactive) | 19.8 µM (inactive) | 22.6 µM (inactive) | – | > 100 µM (inactive) | 64.3 µM (inactive) | > 37 µM (inactive) | 85.7 µM (inactive)
Cc1ccc(-n2c3nc(=O)n(C)c(=O)c-3nc3ccccc32)cc1 | 13.7 µM (inactive) | 4.3 µM (inactive) | 27.6 µM (inactive) | 36 µM (inactive) | 25.4 µM (inactive) | – | 14.7 µM (inactive) | –
COC(=O)C(CC(C)C)NC(=O)CNC(=O)C(Cc1ccc(OCc2ccccc2)cc1)NC(=O)C(COCc1ccccc1)NC(=O)OC(C)(C)C (stereo unspecified) (Boc-S(Bn)Y(Bn)GL-OMe; configuration not given here) | – | – | – | – | – | – | – | > 100 µM (inactive)
N=c1ccn2c(n1)O[C@H]1[C@H](O)[C@@H](CO)O[C@H]12 [ANCITABINE HYDROCHLORIDE] | 0.406 µM (active) | 2.34 µM (inactive) | 652 µM (inactive) | – | > 647 µM (inactive) | 7.21 µM (inactive) | 11.2 µM (inactive) | 213 µM (inactive)
COc1c(O)c2c(c3cc(C(=O)N4CCc5c4c(O)c(OC)c4[nH]c(C(=O)N6CC7CC78C6=CC(=O)c6[nH]cc(C)c68)cc54)[nH]c13)CCN2C(N)=O (stereo unspecified) [CC-1065] | 0.0025 µM (active) | 0.00142 µM (active) | 0.00103 µM (active) | 0.00834 µM (active) | – | 0.0048 µM (active) | – | 0.356 µM (active)
O=C(O)CN1CCN(CC(=O)O)CCN(CC(=O)O)CCN(CC(=O)O)CC1 [TETRAXETAN] | – | – | – | – | – | – | – | > 100 µM (inactive)
